Structures can show the parent of a compound that is named as a salt.
Assays:
PLK1 kinase domain = target: T1, PLK1 kinase domain (Homo sapiens, UniProt P53350); test: Assay for Inhibition of PLK1 (SPA kinase assay); type: biochemical; conditions: 2 nM PLK1 kinase domain, 1 μM ATP, 1 μM substrate peptide, 22° C.; read-out: PLK1 pIC50 (converted)
T1 construct: 6xHis (leader MKKGHHHHHHD) (N); made in house; host or cells: baculovirus infected T. ni cells
Description: 6× N-terminal His-tagged PLK kinase domain (amino acids 21-346 preceded by MKKGHHHHHHD) SEQ ID: No. 1. was prepared from baculovirus infected T. ni cells under polyhedrin promoter control. All procedures were performed at 4° C. Cells were lysed in 50 mM HEPES, 200 mM NaCl, 50 mM imidazole, 5% glycerol; pH 7.5. The homogenate was centrifuged at 14K rpm in a SLA-1500 rotor for 1 hr and the supernatant filtered through a 1.2 micron filter. The supernatant was loaded onto a Nickel chelating Sepharose (Amersham Pharmacia) column and washed with lysis buffer. Protein was eluted using 20%, 30% and 100% buffer B steps where buffer B was 50 mM HEPES, 200 mM NaCl, 300 mM imidazole, 5% glycerol; pH 7.5. Fractions containing PLK were determined by SDS-PAGE. Fractions containing PLK were diluted five-fold with 50 mM HEPES, 1 mM DTT, 5% glycerol; pH 7.5, then loaded on an SP Sepharose (Amersham Pharmacia) column. After washing the column with 50 mM HEPES, 1 mM DTT, 5% glycerol; pH 7.5, PLK was step eluted with 50 mM HEPES, 1 mM DTT, 500 mM NaCl; 5% glycerol; pH 7.5. PLK was concentrated using a 10 kDa molecular weight cutoff membrane and then loaded onto a Superdex 200 gel filtration (Amersham Pharmacia) column equilibrated in 25 mM HEPES, 1 mM DTT, 500 mM NaCl, 5% glycerol; pH 7.5. Fractions containing PLK were determined by SDS-PAGE. PLK was pooled, aliquoted and stored at −80° C. Samples were quality controlled using mass spectrometry, N-terminal sequencing and amino acid analysis.
All measurements were obtained under conditions where signal production increased linearly with time and enzyme. Test compounds were added to white 384-well assay plates (0.1 μL for 10 μL and some 20 μL assays, 1 μL for some 20 μL assays) at variable known concentrations in 100% DMSO. DMSO (I-5% final, as appropriate) and EDTA (65 mM in reaction) were used as controls. Reaction Mix was prepared as follows at 22° C.: • 25 mM HEPES, pH 7.2 • 15 mM MgCl2 • 1 μM ATP • 0.05 μCi/well ^33P-γ ATP (10 Ci/mMol) • 1 μM substrate peptide (Biotin-Ahx-SFNDTLDFD) SEQ ID: No. 2. • 0.15 mg/mL BSA • 1 mM DTT • 2 nM PLK1 kinase domain (added last)
Reaction Mix (10 or 20 μL) was quickly added to each well immediately following addition of enzyme via automated liquid handlers and incubated 1-1.5 h at 22° C. The 20 μL enzymatic reactions were stopped with 50 μL of stop mix (50 mM EDTA, 4.0 mg/mL Streptavidin SPA beads in Standard Dulbecco's PBS (without Mg^2+ and Ca^2+), 50 μM ATP) per well. The 10 μL reactions were stopped with 10 μL of stop mix (50 mM EDTA, 3.0 mg/mL Streptavidin-coupled SPA Imaging Beads (“LeadSeeker”) in Standard Dulbecco's PBS (without Mg^2+ and Ca^2+), 50 μM ATP) per well. Plates were sealed with clear plastic seals, spun at 500×g for 1 min or settled overnight, and counted in Packard TopCount for 30 seconds/well (regular SPA) or imaged using a Viewlux imager (LeadSeeker SPA). Signal above background (EDTA controls) was converted to percent inhibition relative to that obtained in control (DMSO-only) wells.

HCT116 = test: Inhibition of Cell Proliferation (methylene blue or CellTiter-Glo); type: cell-based; conditions: Homo sapiens, HCT-116; HCT116 cell growth, seventy two hours post-treatment, 10% fetal bovine serum
Description: Exponentially growing cell lines of different tumor origins, cultured in appropriate media containing 10% fetal bovine serum at 37° C. in a 5% CO2 incubator were plated at low density (less than 2000 cells/well) in 96-well plates. Twenty four hours post-plating, cells were treated with different concentrations of test compounds ranging from 10 uM to 0.04 nM. Several wells were left untreated as a control. Seventy two hours post-treatment, cell numbers were determined using different techniques; 100 μl per well of methylene blue (Sigma M9140) (0.5% in 50:50 Ethanol:water), or 50-100 ul per well of CellTiter-Glo (Promega #G7573). For methylene blue staining, stain was incubated at room temperature for 30 minutes before plates were rinsed and dye solubilized in 1% N-lauroyl sarcosine, sodium salt, (Sigma L5125, in PBS). Plates were read on a microplate reader, measuring the OD at 620 nm. For CellTiter-Glo, plates were incubated at room temperature for 15 minutes and the chemiluminescent signal was read on the Victor V or Envison 2100 reader.
Percent inhibition of cell growth was expressed as percent proliferation relative to 100% proliferation (control). Concentration of test compound that inhibited 50% of cell growth (IC50) was determined by 4 parameter fit of data using XLfit, (value of no cell control was substracted from all samples for background). The data are shown in Table 1 and Table 2 below and represent a compilation of several different experiments each performed using the general parameters outlined above, although minor variations may have been employed in some instances. In Table 1 and Table 2, +=IC50>1+M; ++=IC50 0.5-1 μM: +++=IC50<0.5 μM.

T1 sequence (P53350 21-346): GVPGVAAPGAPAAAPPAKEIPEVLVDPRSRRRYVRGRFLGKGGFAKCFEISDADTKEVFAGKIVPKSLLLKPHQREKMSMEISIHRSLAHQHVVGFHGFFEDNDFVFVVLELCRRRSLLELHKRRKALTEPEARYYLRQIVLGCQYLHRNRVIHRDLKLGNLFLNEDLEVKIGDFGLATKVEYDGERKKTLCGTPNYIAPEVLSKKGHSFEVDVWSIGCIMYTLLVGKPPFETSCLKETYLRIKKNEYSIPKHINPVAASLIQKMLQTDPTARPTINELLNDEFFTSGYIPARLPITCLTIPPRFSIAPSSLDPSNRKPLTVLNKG

Row | SMILES | IC50 (PLK1 kinase domain) [nM] | IC50 (HCT116) [nM]
1 | COc1cc2ncn(-c3cc(O[C@H](C)c4cc(C(=O)NCCN(C)C)ccc4Cl)c(C(N)=O)s3)c2cc1OC [Example 1, 5-[5,6-Bis(methyloxy)-1H-benzimidazol-1-yl]-3-({(1R)-1-[2-chloro-5-({[2-(dimethylamino)ethyl]amino}carbonyl)phenyl]ethyl}oxy)-2-thiophenecarboxamide formate] | 100 to 1000 | –
2 | C[C@@H](Oc1cc(-n2cnc3cc(-c4cnn(C)c4)ccc32)sc1C(N)=O)c1cccc(OCCN)c1Cl [Example 7, 3-[((1R)-1-{3-[(2-aminoethyl)oxy]-2-chlorophenyl}ethyl)oxy]-5-[5-(1-methyl-1H-pyrazol-4-yl)-1H-benzimidazol-1-yl]-2-thiophenecarboxamide hydrochloride] | < 100 | < 500
3 | COc1cc2ncn(-c3cc(O[C@H](C)c4cccc(NCCO)c4Cl)c(C(N)=O)s3)c2cc1OC [Example 2, 5-[5,6-Bis(methyloxy)-1H-benzimidazol-1-yl]-3-[((1R)-1-{2-chloro-3-[(2-hydroxyethyl)amino]phenyl}ethyl)oxy]-2-thiophenecarboxamide] | – | < 500
4 | C[C@@H](Oc1cc(-n2cnc3cc(-c4cnn(C)c4)ccc32)sc1C(N)=O)c1cccc(OCCO)c1Cl [Example 6, 3-[((1R)-1-{2-chloro-3-[(2-hydroxyethyl)oxy]phenyl}ethyl)oxy]-5-[5-(1-methyl-1H-pyrazol-4-yl)-1H-benzimidazol-1-yl]-2-thiophenecarboxamide] | < 100 | < 500
5 | C[C@@H](Oc1cc(-n2cnc3cc(-c4cnn(C)c4)ccc32)sc1C(N)=O)c1cccc(OCCN(C)C)c1Cl [Example 8, 3-{[(1R)-1-(2-chloro-3-{[2-(dimethylamino)ethyl]oxy}phenyl)ethyl]oxy}-5-[5-(1-methyl-1H-pyrazol-4-yl)-1H-benzimidazol-1-yl]-2-thiophenecarboxamide] | < 100 | < 500
6 | C[C@@H](Oc1cc(-n2cnc3ccccc32)sc1C(N)=O)c1cccc(OCCN)c1Cl [Example 4, 3-[((1R)-1-{3-[(2-Aminoethyl)oxy]-2-chlorophenyl}ethyl)oxy]-5-(1H-benzimidazol-1-yl)-2-thiophenecarboxamide] | < 100 | < 500

More lines, now with the values ahead:

Row | IC50 (PLK1 kinase domain) [nM] | IC50 (HCT116) [nM] | SMILES
7 | < 100 | < 500 | C[C@@H](Oc1cc(-n2cnc3cc(-c4cnn(C)c4)ccc32)sc1C(N)=O)c1cccc(OCCCN(C)C)c1Cl [Example 9, 3-{[(1R)-1-(2-chloro-3-{[3-(dimethylamino)propyl]oxy}phenyl)ethyl]oxy}-5-[5-(1-methyl-1H-pyrazol-4-yl)-1H-benzimidazol-1-yl]-2-thiophenecarboxamide]
8 | < 100 | < 500 | COc1cc2ncn(-c3cc(O[C@H](C)c4cccc(OCCN)c4Cl)c(C(N)=O)s3)c2cc1OC [Example 3, 3-[((1R)-1-{3-[(2-aminoethyl)oxy]-2-chlorophenyl}ethyl)oxy]-5-[5,6-bis(methyloxy)-1H-benzimidazol-1-yl]-2-thiophenecarboxamide]
9 | < 100 | < 500 | C[C@@H](Oc1cc(-n2cnc3cc(-c4cnn(C)c4)ccc32)sc1C(N)=O)c1cccc(OCCCO)c1Cl [Example 5]
